Reference: US9931328B2, “Topical retinoid compositions” (DR. REDDY'S LABORATORIES, LTD., priority 2015, dated 2018)

How the values were obtained:
[1] = Excipients compatibility study with tazarotene; assay type: physicochemical
Procedure: Excipient compatibility study for tazarotene was carried out with various pharmaceutically acceptable excipients. The tazarotene was tested in a set of compatibility screening studies with the excipients in closed vials containing tazarotene. The excipients physical mixture were incubated in ovens with and without moisture at 60° C. or 40° C./75% RH for 4 weeks.

[2] = Multiple dose bioavailability study versus TAZORAC 0.1% cream; assay type: in vivo, healthy male subjects; settings: after topical application of test or reference product
Procedure: The study was a single-center, randomized, multiple dose, laboratory-blinded, open-label, 3-arm, parallel design in healthy male subjects. The following investigational products were to be administered: 1) Test product: composition of example 1 (tazarotene 0.1%) and 2) reference: TAZORAC cream 0.1%. Following were treatment arms: 1) Treatment 1: Test product applied twice daily, in the morning and evening, 12 hours apart; 2) Treatment 2: Test product applied once daily, in the morning; and 3) Treatment 3: Reference product applied once daily, in the morning. For each study arm (n=16), approximately 5 g of the Test or Reference product was to be applied to the subjects face, neck, shoulders, upper chest and upper back (total approximately equivalent to 15% body surface area (BSA)) over 14 consecutive days (Days 1 to 14). Blood sample were collected time to time as per the schedule of the study.

excipient compatibility ([1]; with benzyl alcohol, lactic acid, polysorbate 80): incompatible | excipient compatibility ([1]; with excipients of examples 1, 2, 3 (carbomer type A and B, cocobetaine, sodium lauryl sarcosinate, stearyl alcohol, cetyl alcohol, glycerine, vitamin E TPGS, gluconolactone, BHT, parabens)): compatible | concentrations of the parent compound detected in plasma samples [2]: Very low concentrations
Structure (SMILES): CCOC(=O)c1ccc(C#Cc2ccc3c(c2)C(C)(C)CCS3)nc1 [tazarotene, Tazarotene]
